The source made the active and inactive calls. The calls are words filed in the database; no cut-off is given here.
Tests used:
[1] = biological target: Muscarinic acetylcholine receptor M3 (Homo sapiens) (UniProt P20309); test: Activity at muscarinic M3 receptor expressing in CHONFAT cells assessed as potentiation of acetylcholine-induced calcium mobilization preincubated for 4 mins and measured 4 mins after acetylcholine stimulation by FLIPR assay; assay type: functional, cell-based
[2] = biological target: T1, Muscarinic acetylcholine receptor M2 (Homo sapiens) (UniProt P08172); test: Activity at muscarinic M2 receptor expressing in CHONFAT cells assessed as potentiation of acetylcholine-induced calcium mobilization preincubated for 4 mins and measured 4 mins after acetylcholine stimulation by FLIPR assay; assay type: functional, cell-based
T1 sequence (whole entry): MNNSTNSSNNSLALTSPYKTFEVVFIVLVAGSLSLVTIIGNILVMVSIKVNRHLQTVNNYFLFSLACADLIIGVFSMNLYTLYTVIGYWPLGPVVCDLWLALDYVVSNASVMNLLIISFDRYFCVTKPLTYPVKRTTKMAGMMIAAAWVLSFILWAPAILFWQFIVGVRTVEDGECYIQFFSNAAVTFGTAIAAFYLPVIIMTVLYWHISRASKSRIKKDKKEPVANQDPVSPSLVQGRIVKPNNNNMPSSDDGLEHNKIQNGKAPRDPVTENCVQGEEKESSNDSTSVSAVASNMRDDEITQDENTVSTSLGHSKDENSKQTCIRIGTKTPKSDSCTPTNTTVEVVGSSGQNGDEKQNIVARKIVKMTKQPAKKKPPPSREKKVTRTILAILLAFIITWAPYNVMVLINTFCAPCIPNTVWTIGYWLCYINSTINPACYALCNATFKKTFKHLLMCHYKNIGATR

[3] = biological target: T2, Muscarinic acetylcholine receptor M1 (Homo sapiens) (UniProt P11229); test: Positive allosteric modulation of human muscarinic M1 receptor expressing in CHONFAT cells assessed as potentiation of acetylcholine-induced calcium mobilization preincubated for 4 mins and measured 4 mins after acetylcholine stimulation by FLIPR assay; assay type: functional, cell-based
T2 sequence (whole entry): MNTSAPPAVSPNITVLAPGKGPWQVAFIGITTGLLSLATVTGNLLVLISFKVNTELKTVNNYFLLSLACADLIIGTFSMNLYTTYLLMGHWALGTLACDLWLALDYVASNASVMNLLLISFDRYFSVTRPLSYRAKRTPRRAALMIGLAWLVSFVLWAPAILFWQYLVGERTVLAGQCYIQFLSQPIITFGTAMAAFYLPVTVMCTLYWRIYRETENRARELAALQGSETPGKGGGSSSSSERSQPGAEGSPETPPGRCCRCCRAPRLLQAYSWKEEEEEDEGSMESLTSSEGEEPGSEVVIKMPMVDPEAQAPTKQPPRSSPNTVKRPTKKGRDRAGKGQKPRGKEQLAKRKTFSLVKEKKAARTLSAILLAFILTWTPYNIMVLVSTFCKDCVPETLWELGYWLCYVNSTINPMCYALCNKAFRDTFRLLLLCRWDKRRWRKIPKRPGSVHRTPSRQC

[4] = biological target: T3, Muscarinic acetylcholine receptor M4 (Homo sapiens) (UniProt P08173); test: Activity at muscarinic M4 receptor expressing in CHONFAT cells assessed as potentiation of acetylcholine-induced calcium mobilization preincubated for 4 mins and measured 4 mins after acetylcholine stimulation by FLIPR assay; assay type: functional, cell-based
T3 sequence (whole entry): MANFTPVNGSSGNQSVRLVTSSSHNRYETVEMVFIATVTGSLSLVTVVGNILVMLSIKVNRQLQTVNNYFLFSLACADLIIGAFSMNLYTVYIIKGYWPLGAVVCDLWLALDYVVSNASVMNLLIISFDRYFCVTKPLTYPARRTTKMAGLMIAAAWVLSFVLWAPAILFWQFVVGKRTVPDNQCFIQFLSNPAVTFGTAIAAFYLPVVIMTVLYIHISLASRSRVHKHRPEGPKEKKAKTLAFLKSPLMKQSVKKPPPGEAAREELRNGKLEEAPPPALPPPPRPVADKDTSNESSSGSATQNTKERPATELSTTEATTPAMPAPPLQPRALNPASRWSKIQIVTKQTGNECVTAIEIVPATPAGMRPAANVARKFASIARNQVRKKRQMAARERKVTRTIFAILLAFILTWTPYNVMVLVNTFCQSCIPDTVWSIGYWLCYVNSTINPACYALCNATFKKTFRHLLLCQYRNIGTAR

[5] = Passive permeability across MDCK cells; assay type: ADME, cell-based, Canis lupus familiaris; settings: dog
MDR1a (P-gp, ABCB1) = MDR1a (P-gp, ABCB1) (Rattus norvegicus, UniProt P43245); test: in vitro; settings: not told
MDR1a (P-gp, ABCB1), sequence (P43245 whole entry): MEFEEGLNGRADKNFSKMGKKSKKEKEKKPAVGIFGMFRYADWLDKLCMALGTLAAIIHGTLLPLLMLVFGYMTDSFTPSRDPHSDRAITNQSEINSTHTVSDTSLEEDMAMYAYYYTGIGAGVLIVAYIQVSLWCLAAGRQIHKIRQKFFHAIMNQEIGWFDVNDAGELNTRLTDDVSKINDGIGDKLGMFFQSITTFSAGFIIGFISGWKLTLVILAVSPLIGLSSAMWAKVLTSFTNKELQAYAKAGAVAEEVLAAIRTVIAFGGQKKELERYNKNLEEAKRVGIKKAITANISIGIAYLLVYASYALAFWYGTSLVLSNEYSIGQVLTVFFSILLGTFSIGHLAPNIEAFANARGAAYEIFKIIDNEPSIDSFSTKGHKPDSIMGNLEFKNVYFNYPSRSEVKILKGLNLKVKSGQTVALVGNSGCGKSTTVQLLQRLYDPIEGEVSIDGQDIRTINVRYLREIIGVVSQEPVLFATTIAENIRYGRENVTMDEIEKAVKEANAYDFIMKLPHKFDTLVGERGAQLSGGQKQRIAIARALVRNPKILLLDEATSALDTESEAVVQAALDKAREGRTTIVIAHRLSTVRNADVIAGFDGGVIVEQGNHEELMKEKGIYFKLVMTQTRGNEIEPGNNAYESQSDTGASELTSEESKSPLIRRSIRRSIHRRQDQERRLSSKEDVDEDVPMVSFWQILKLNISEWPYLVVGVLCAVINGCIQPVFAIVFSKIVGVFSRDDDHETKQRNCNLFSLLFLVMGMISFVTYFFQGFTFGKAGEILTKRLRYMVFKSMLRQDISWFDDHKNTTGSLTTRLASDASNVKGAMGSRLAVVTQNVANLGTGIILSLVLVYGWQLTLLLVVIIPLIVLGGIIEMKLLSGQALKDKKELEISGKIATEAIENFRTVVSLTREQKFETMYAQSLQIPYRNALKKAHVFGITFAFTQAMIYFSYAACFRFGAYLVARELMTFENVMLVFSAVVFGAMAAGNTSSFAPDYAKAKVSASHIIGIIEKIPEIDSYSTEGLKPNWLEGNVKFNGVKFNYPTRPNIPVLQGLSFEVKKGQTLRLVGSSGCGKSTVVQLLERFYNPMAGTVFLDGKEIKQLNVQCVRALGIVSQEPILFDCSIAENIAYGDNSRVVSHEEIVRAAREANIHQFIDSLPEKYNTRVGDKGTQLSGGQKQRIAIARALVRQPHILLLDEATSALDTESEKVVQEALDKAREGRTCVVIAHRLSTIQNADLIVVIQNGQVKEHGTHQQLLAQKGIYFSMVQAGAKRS
Description: Efflux ratio assessed as rat MDR1a-mediated directional transport ratio from basolateral to apical over apical to basolateral by cell based assay

MDR1 (P-gp, ABCB1) = MDR1 (P-gp, ABCB1) (Homo sapiens, UniProt P08183); test: in vitro; settings: not told
MDR1 (P-gp, ABCB1), sequence (P08183 whole entry): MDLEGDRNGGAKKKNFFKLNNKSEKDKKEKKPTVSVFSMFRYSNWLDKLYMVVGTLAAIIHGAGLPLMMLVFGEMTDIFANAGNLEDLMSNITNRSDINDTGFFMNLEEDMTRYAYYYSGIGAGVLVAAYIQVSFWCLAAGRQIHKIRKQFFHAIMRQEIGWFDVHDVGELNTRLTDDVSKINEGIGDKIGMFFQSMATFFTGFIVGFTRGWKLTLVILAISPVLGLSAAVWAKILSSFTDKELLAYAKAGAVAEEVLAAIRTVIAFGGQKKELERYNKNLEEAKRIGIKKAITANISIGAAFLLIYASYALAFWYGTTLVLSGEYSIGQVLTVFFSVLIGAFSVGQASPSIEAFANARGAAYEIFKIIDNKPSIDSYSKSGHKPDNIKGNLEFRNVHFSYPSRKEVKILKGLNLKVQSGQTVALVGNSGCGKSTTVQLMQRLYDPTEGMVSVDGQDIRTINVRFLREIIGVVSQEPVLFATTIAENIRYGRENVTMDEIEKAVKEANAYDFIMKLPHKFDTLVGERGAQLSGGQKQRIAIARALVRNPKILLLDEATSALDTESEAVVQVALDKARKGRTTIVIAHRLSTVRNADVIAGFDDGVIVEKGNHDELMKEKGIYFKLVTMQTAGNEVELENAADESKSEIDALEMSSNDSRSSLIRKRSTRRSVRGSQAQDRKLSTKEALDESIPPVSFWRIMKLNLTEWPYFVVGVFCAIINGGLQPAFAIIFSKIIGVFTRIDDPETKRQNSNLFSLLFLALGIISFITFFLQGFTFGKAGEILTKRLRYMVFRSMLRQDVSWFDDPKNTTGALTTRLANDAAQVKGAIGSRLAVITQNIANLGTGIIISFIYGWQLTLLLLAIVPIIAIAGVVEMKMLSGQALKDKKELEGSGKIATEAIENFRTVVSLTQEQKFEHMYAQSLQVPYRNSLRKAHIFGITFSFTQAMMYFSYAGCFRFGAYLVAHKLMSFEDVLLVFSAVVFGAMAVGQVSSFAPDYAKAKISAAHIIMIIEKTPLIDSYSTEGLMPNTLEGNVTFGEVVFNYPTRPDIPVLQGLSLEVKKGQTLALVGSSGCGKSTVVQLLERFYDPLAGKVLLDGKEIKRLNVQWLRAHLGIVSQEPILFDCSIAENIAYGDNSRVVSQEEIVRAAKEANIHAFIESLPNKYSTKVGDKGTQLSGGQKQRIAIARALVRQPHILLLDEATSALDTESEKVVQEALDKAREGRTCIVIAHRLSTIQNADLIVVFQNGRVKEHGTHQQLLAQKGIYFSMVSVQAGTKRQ
Description: Efflux ratio assessed as human MDR1-mediated directional transport ratio from basolateral to apical over apical to basolateral by cell based assay

[6] = Protein binding in rat plasma; assay type: ADME, cell-free; settings: read-out: PPB (converted)
[7] = Drug concentration in Sprague-Dawley rat CSF at 10 mg/kg, po after 2 hrs; assay type: ADME, organism-based, Cerebrospinal fluid; design: dose 10 mg/kg, route oral; settings: read-out: Drug uptake
[8] = Drug concentration in Sprague-Dawley rat brain at 10 mg/kg, po after 2 hrs; assay type: ADME, organism-based; design: dose 10 mg/kg, route oral; settings: read-out: Drug uptake
[9] = Plasma concentration in Sprague-Dawley rat at 10 mg/kg, po after 2 hrs; assay type: ADME, organism-based; design: dose 10 mg/kg, route oral
[10] = Ratio of drug level in brain to plasma of Sprague-Dawley rat at 10 mg/kg, po after 2 hrs; assay type: ADME, organism-based; design: dose 10 mg/kg, route oral; settings: read-out: BPR
[11] = Protein binding in human plasma; assay type: ADME, cell-free; settings: read-out: PPB (converted)

Muscarinic acetylcholine receptor M3 (Homo sapiens), sequence (P20309 whole entry, looked up): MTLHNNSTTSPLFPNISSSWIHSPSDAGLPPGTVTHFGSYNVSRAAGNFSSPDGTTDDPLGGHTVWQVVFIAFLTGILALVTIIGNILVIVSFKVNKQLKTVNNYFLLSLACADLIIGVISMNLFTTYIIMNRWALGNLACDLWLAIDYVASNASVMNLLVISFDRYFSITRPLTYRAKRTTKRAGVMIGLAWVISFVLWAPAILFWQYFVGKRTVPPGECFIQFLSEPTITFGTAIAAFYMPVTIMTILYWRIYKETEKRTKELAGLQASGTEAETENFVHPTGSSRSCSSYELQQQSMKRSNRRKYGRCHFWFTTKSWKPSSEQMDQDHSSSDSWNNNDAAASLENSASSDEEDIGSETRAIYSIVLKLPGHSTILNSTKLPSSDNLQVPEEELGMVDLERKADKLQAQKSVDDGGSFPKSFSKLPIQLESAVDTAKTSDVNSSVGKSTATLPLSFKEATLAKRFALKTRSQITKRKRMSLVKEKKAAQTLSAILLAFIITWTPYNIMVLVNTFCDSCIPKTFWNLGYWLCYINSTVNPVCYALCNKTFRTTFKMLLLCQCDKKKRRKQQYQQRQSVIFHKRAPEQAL

Row | SMILES | Activity [1] | Activity [2] | IP [3] [nM] | Activity [4] | Papp [5] [×10⁻⁶ cm/s] | efflux ratio (MDR1a (P-gp, ABCB1)) | efflux ratio (MDR1 (P-gp, ABCB1)) | fraction unbound [6] | concentration at 2 h [7] [nM] | concentration at 2 h [8] [nM] | concentration at 2 h [9] [nM] | Kp at 2 h [10] | fraction unbound [11]
1 | COc1ccc(Cn2cc(C(=O)Nc3ccccc3C)c(=O)c3ccccc32)cc1 | inactive | inactive | 23000 | inactive |  |  |  |  |  |  |  |  | 
2 | N#CC1(c2ccccn2)CCN(Cc2cc(C(=O)N3CCCc4ccccc43)c(=O)n3ccccc23)CC1 | inactive | inactive | 7800 | inactive |  |  |  |  |  |  |  |  | 
3 | C[C@@]1(NC(=O)c2cc(CN3CCC(C#N)(c4ccccn4)CC3)c3ccccn3c2=O)CCCC[C@H]1O | inactive | inactive | > 20000 | inactive | 28 | 12 | 10 |  |  |  |  |  | 
4 | O=C(N[C@H]1CCCC[C@@H]1O)c1cc(CN2CCN(c3cc4scnc4cn3)CC2)c2ccccn2c1=O | inactive | inactive | 22 | inactive | 37 |  |  | 0.051 | 4 | 77 | 375 | 0.19 | 0.082
5 | C[C@@]1(O)CCCC[C@H]1NC(=O)c1cc(CN2CCC(C#N)(c3ccccn3)CC2)c2ccccn2c1=O | inactive | inactive | 93 | inactive |  |  |  |  |  |  |  |  | 
6 | CS[C@H]1CCCC[C@@H]1NC(=O)c1cc(CN2CCC(C#N)(c3ccccn3)CC2)c2ccccn2c1=O | inactive | inactive | 177 | inactive |  |  |  |  |  |  |  |  | 
7 | CN(C(=O)c1cc(CN2CCC(C#N)(c3ccccn3)CC2)c2ccccn2c1=O)C1CCOCC1 | inactive | inactive | 4400 | inactive |  |  |  |  |  |  |  |  | 
8 | N#CC1(c2ccccn2)CCN(Cc2cc(C(=O)NC3CCCCCC3)c(=O)n3ccccc23)CC1 | inactive | inactive | 304 | inactive |  |  |  |  |  |  |  |  | 
9 | Cc1ccc(N2CCN(Cc3cc(C(=O)N[C@H]4CCCC[C@@H]4O)c(=O)n4ccccc34)CC2)nc1 | inactive | inactive | 174 | inactive | 23 |  |  | 0.287 |  |  |  |  | 0.399
10 | N#CC1(c2ccccn2)CCN(Cc2cc(C(=O)NC3CCCOC3)c(=O)n3ccccc23)CC1 (stereo not drawn) | inactive | inactive | 2600 | inactive |  |  |  |  |  |  |  |  | 
11 | N#CC1(c2ccccn2)CCN(Cc2cc(C(=O)NC3CCSCC3)c(=O)n3ccccc23)CC1 | inactive | inactive | 344 | inactive |  |  |  |  |  |  |  |  | 
12 | CO[C@H]1CCCC[C@@H]1NC(=O)c1cc(CN2CCC(C#N)(c3ccccn3)CC2)c2ccccn2c1=O | inactive | inactive | 381 | inactive |  |  |  |  |  |  |  |  | 
13 | COc1ccc(Cn2cc(C(=O)NC3CCCCC3)c(=O)c3ccccc32)cc1 | inactive | inactive | 14000 | inactive |  |  |  |  |  |  |  |  | 
14 | Cc1cccc2c1N(C(=O)c1cc(CN3CCC(C#N)(c4ccccn4)CC3)c3ccccn3c1=O)CCC2 | inactive | inactive | 4400 | inactive |  |  |  |  |  |  |  |  | 
15 | N#CC1(c2ccccn2)CCN(Cc2cc(C(=O)Nc3ccccn3)c(=O)n3ccccc23)CC1 | inactive | inactive | 640 | inactive |  |  |  |  |  |  |  |  | 
16 | Cc1ccccc1NC(=O)c1cc(CN2CCC(C#N)(c3ccccn3)CC2)c2ccccn2c1=O | inactive | inactive | 2400 | inactive |  |  |  |  |  |  |  |  | 
17 | Cn1cc(NC(=O)c2cc(CN3CCC(C#N)(c4ccccn4)CC3)c3ccccn3c2=O)nn1 | inactive | inactive | 1300 | inactive |  |  |  |  |  |  |  |  | 
18 | N#CC1(c2ccccn2)CCN(Cc2cc(C(=O)NC3CCCCC3(F)F)c(=O)n3ccccc23)CC1 (stereo not drawn) | inactive | inactive | 205 | inactive | 29 | 3.4 | 1.7 | 0.04 |  |  |  |  | 0.105

Second part, the molecule after the results:

Row | Activity [1] | Activity [2] | IP [3] [nM] | Activity [4] | Papp [5] [×10⁻⁶ cm/s] | efflux ratio (MDR1a (P-gp, ABCB1)) | efflux ratio (MDR1 (P-gp, ABCB1)) | fraction unbound [6] | concentration at 2 h [7] [nM] | concentration at 2 h [8] [nM] | concentration at 2 h [9] [nM] | Kp at 2 h [10] | fraction unbound [11] | SMILES
19 | inactive | inactive | 1900 | inactive |  |  |  |  |  |  |  |  |  | N#CC1(c2ccccn2)CCN(Cc2cc(C(N)=O)c(=O)n3ccccc23)CC1
20 | inactive | inactive | 2200 | inactive |  |  |  |  |  |  |  |  |  | N#CC1(c2ccccn2)CCN(Cc2cc(C(=O)NC3CC3)c(=O)n3ccccc23)CC1
21 | inactive | inactive | 780 | inactive |  |  |  |  |  |  |  |  |  | N#CC1(c2ccccn2)CCN(Cc2cc(C(=O)NC3CCCC3)c(=O)n3ccccc23)CC1
22 | inactive | inactive | 220 | inactive |  |  |  |  |  |  |  |  |  | N#CC1(c2ccccn2)CCN(Cc2cc(C(=O)N[C@@H]3CCCC[C@H]3O)c(=O)n3ccccc23)CC1
23 | inactive | inactive | 31 | inactive | 29 |  |  | 0.14 |  |  |  |  | 0.48 | N#CC1(c2ccccn2)CCN(Cc2cc(C(=O)N[C@H]3CCCC[C@@H]3O)c(=O)n3ccccc23)CC1
24 | inactive | inactive | 23000 | inactive |  |  |  |  |  |  |  |  |  | N#CC1(c2ccccn2)CCN(Cc2cc(C(=O)N3CCCC3)c(=O)n3ccccc23)CC1
25 | inactive | inactive | 190 | inactive |  |  |  |  |  |  |  |  |  | C[C@H]1CCCC[C@@H]1NC(=O)c1cc(CN2CCC(C#N)(c3ccccn3)CC2)c2ccccn2c1=O
26 | inactive | inactive | 253 | inactive | 28 | 2 | 1.6 | 0.044 |  |  |  |  | 0.066 | N#CC1(c2ccccn2)CCN(Cc2cc(C(=O)NC3CCCCC3)c(=O)n3ccccc23)CC1
27 | inactive | inactive | 4300 | inactive |  |  |  |  |  |  |  |  |  | CNC(=O)c1cc(CN2CCC(C#N)(c3ccccn3)CC2)c2ccccn2c1=O
28 | inactive | inactive | 980 | inactive |  |  |  |  |  |  |  |  |  | N#CC1(c2ccccn2)CCN(Cc2cc(C(=O)NC3CCC3)c(=O)n3ccccc23)CC1

Reference: ChEMBL document CHEMBL2203078, “Identification of amides as carboxylic Acid surrogates for quinolizidinone-based m1 positive allosteric modulators” (ACS Med Chem Lett, 2012)
